Laboratory results from the Deep4Chem optical property database.
Values joined by “and” are separate entries in the source; they are usually repeats but may differ in a detail not shown here. Identical values can stand only once. One block for each compound: values may come before it.

Test: photoluminescence quantum yield (fraction); solvent given as SMILES

Compound: CCCCCCOc1ccc(N(c2ccc(OCCCCCC)cc2)c2ccc(-c3sc(-c4ccc(N(c5ccc(OCCCCCC)cc5)c5ccc(OCCCCCC)cc5)cc4)c4nc(-c5ccc(C(=O)OC)cc5)c(-c5ccc(C(=O)OC)cc5)nc34)cc2)cc1
photoluminescence quantum yield (in CN(C)C=O): 0.021 | photoluminescence quantum yield (in ClC(Cl)Cl): 0.026

Compound: CCC1=C(C)C2=C(c3cc(C4=C5C(C)=C(CC)C(C)=[N+]5[B-](F)(F)n5c(C)c(CC)c(C)c54)cc(C4=C5C(C)=C(CC)C(C)=[N+]5[B-](F)(F)n5c(C)c(CC)c(C)c54)c3)c3c(C)c(CC)c(C)n3[B-](F)(F)[N+]2=C1C
photoluminescence quantum yield (in C1CCOC1): 0.91 | photoluminescence quantum yield (in CC#N): 0.62 | photoluminescence quantum yield (in CN(C)C=O): 0.73 | photoluminescence quantum yield (in Cc1ccccc1): 0.95 | photoluminescence quantum yield (in ClC(Cl)Cl): 0.88

Compound: CCCCCCCCCC1(CCCCCCCCC)c2cc(C#Cc3ccc(C#Cc4ccc(N(CCCCCC)CCCCCC)cc4)cc3)ccc2-c2ccc(C#Cc3ccc(C#Cc4ccc(N(CCCCCC)CCCCCC)cc4)cc3)cc21
photoluminescence quantum yield (in Cc1ccccc1): 0.82

Compound: c1ccc(-c2nc(-c3ccccc3)c(-c3ccccc3)o2)cc1
photoluminescence quantum yield (in Cc1ccccc1): 0.36

Compound: CCC1=C(C)C2=C(C)c3c(I)c(I)cn3[B-](F)(F)[N+]2=C1C
photoluminescence quantum yield (in C1CCCCC1): 0.05 | photoluminescence quantum yield (in CC(C)=O): 0.024 | photoluminescence quantum yield (in CCO): 0.021 | photoluminescence quantum yield (in CCOC(C)=O): 0.031 | photoluminescence quantum yield (in CO): 0.02 | photoluminescence quantum yield (in OCC(F)(F)F): 0.019

Compound: CCCCCCN(CCCCCC)c1ccc(C#Cc2ccc(/C=C/c3ccc(-c4ccc(/C=C/c5ccc(C#Cc6ccc(N(CCCCCC)CCCCCC)cc6)cc5)cc4)cc3)cc2)cc1
photoluminescence quantum yield (in Cc1ccccc1): 0.8

Compound: c1ccc(-c2nc(-c3ccc(N4c5ccccc5C(c5ccccc5)(c5ccccc5)c5ccccc54)cc3)cc(-c3ccc(N4c5ccccc5C(c5ccccc5)(c5ccccc5)c5ccccc54)cc3)n2)cc1
photoluminescence quantum yield (in Cc1ccccc1): 0.5 | photoluminescence quantum yield (in O=P(c1ccccc1)(c1ccccc1)c1ccc2oc3ccc(P(=O)(c4ccccc4)c4ccccc4)cc3c2c1): 0.94

Compound: C1=C(c2ccccc2)C2=Nc3c(-c4ccccc4)cc4n3[B-]3(Oc5ccccc5C1=[N+]23)Oc1ccccc1-4 (centres undefined)
photoluminescence quantum yield (in Cc1ccccc1): 0.51

Compound: COc1ccc(-c2ncccn2)cc1
photoluminescence quantum yield (in ClCCl): 0.01

Compound: CN(C)c1nc(N)c2nc(C#N)n(Cc3ccccc3)c2n1
photoluminescence quantum yield (in C1COCCO1): 0.92 | photoluminescence quantum yield (in CC#N): 0.55 | photoluminescence quantum yield (in CO): 0.8 | photoluminescence quantum yield (in ClCCl): 0.95

Compound: Clc1cc(Cl)c([C](c2c(Cl)cc(Cl)cc2Cl)c2c(Cl)cc(Cl)cc2Cl)c(Cl)c1
photoluminescence quantum yield (in C1CCCCC1): 0.008

Compound: CC[N+]1(CC)CN2C(=N1)C(C(=O)O)=Cc1c(OC)ccc(OC)c12
photoluminescence quantum yield (in O): 0.018

Compound: Nc1nc2c([nH]c(=O)n2[C@H]2C[C@H](O)[C@@H](CO)O2)c(=O)[nH]1
photoluminescence quantum yield (in O): 0.00013

Compound: c1ccc(-c2nn(-c3ccccc3)c3nc4ccc(-n5c6ccccc6c6ccccc65)cc4cc23)cc1
photoluminescence quantum yield (in C1CCCCC1): 0.88 | photoluminescence quantum yield (in C1CCOC1): 0.81 | photoluminescence quantum yield (in CC#N): 0.72 | photoluminescence quantum yield (in CC(C)=O): 0.72 | photoluminescence quantum yield (in CCCCCl): 0.88 | photoluminescence quantum yield (in CCCCOCCCC): 0.7 | photoluminescence quantum yield (in CN(C)C=O): 0.76

Compound: CCOC(=O)CN1C(=O)C2=C(c3ccc(C#N)cc3)N(CC(=O)OCC)C(=O)C2=C1c1ccc(C#N)cc1
photoluminescence quantum yield (in CC#N): 0.32 | photoluminescence quantum yield (in CS(C)=O): 0.72 | photoluminescence quantum yield (in Cc1ccccc1): 0.29

Compound: N#C/C(=C\c1ccc(C#N)cc1)c1nc(-c2ccccc2)cs1
photoluminescence quantum yield (in CC#N): 0.18 | photoluminescence quantum yield (in CCO): 0.18 | photoluminescence quantum yield (in CN(C)C=O): 0.272 | photoluminescence quantum yield (in Cc1ccccc1): 0.098 | photoluminescence quantum yield (in ClCCl): 0.131

Compound: C[n+]1ccc(/C=C/c2cc[n+](C)cc2)cc1
photoluminescence quantum yield (in CC#N): 0.015

Compound: COc1nc(Nc2ccc3c4c(cccc24)C(=O)c2ccccc2-3)nc(OC)n1
photoluminescence quantum yield (in CC#N): 0.59 | photoluminescence quantum yield (in CC(C)=O): 0.66 | photoluminescence quantum yield (in CC(C)O): 0.38 | photoluminescence quantum yield (in CCCCOCCCC): 0.22 | photoluminescence quantum yield (in CCOC(C)=O): 0.58 | photoluminescence quantum yield (in CCOCC): 0.39 | photoluminescence quantum yield (in CO): 0.3 | photoluminescence quantum yield (in Cc1ccccc1): 0.56 | photoluminescence quantum yield (in Clc1ccccc1): 0.66 | photoluminescence quantum yield (in N#Cc1ccccc1): 0.64 | photoluminescence quantum yield (in O=C1CCCCC1): 0.67

Compound: C(#Cc1ccc2ncsc2c1)c1ccc(N(c2ccccc2)c2ccccc2)cc1
photoluminescence quantum yield (in Cc1ccccc1): 0.23

Compound: Cc1cccc2nc3c(=O)[nH]c(=O)[nH]c3nc12
photoluminescence quantum yield (in C1COCCO1): 0.033 | photoluminescence quantum yield (in CC#N): 0.018 | photoluminescence quantum yield (in CCO): 0.03 | photoluminescence quantum yield (in CO): 0.044 | photoluminescence quantum yield (in ClCCCl): 0.028 | photoluminescence quantum yield (in O): 0.053

Compound: Cn1c2ccc(S(=O)(=O)Cl)cc2c(=O)c2cc(S(=O)(=O)Cl)ccc21
photoluminescence quantum yield (in CS(C)=O): 0.7

Compound: CN(C)c1ccc(/C=C/c2nc3c4ccccc4c4ccccc4c3[nH]2)cc1
photoluminescence quantum yield (in C1CCOC1): 0.055 | photoluminescence quantum yield (in C1COCCO1): 0.176 | photoluminescence quantum yield (in CC1CCCCC1): 0.195 | photoluminescence quantum yield (in CC#N): 0.058 | photoluminescence quantum yield (in CCOC(C)=O): 0.048 | photoluminescence quantum yield (in CCOCC): 0.147 | photoluminescence quantum yield (in CN(C)C=O): 0.04 | photoluminescence quantum yield (in COC(C)=O): 0.03 | photoluminescence quantum yield (in CS(C)=O): 0.067 | photoluminescence quantum yield (in Cc1ccccc1): 0.114 | photoluminescence quantum yield (in ClC(Cl)Cl): 0.035

Compound: F[B-]1(F)n2c(-c3cccs3)cc(-c3cccs3)c2N=C2C(c3cccs3)=CC(c3cccs3)=[N+]21
photoluminescence quantum yield (in C1CCOC1): 0.12 | photoluminescence quantum yield (in CC#N): 0.11 | photoluminescence quantum yield (in CS(C)=O): 0.13 | photoluminescence quantum yield (in Cc1ccccc1): 0.1 | photoluminescence quantum yield (in ClCCl): 0.12 and 0.11

The remaining lines, values ahead:

photoluminescence quantum yield (in CCO): 0.292 | photoluminescence quantum yield (in O): 0.058
Compound: Cc1cc2nc3cc(C)c(N)cc3[n+](-c3ccccc3)c2cc1N

photoluminescence quantum yield (in ClCCl): 0.12
Compound: CC(=O)c1ccc(-c2cc3c(ccc4sccc43)s2)cc1

photoluminescence quantum yield (in CC#N): 0.38
Compound: CC1=C2C3=C(CCc4ccccc43)C(C)=[N+]2[B-](F)(F)n2c(C)c3c(c21)-c1ccccc1CC3

photoluminescence quantum yield (in ClC(Cl)Cl): 0.028
Compound: c1ccc2c([SiH](c3c4ccccc4cc4ccccc34)c3c4ccccc4cc4ccccc34)c3ccccc3cc2c1

photoluminescence quantum yield (in ClCCl): 0.1
Compound: C[Si]1(C)c2ccc(-c3ccc(-c4cccs4)s3)cc2C=Cc2cc(-c3ccc(-c4cccs4)s3)ccc21

photoluminescence quantum yield (in ClCCl): 0.1
Compound: COc1ccc(C2=C3C(/C=C/c4cc(OC)c(OC)c(OC)c4)=C(C=O)C(C)=[N+]3[B-](F)(F)n3c(/C=C/c4cc(OC)c(OC)c(OC)c4)c(C=O)c(C=Cc4cc(OC)c(OC)c(OC)c4)c32)cc1

photoluminescence quantum yield (in O): 0.34
Compound: CC[n+]1nc2cc3c4c(c2c2cc(F)ccc21)CCCN4CCC3

photoluminescence quantum yield (in C1CCCCC1): 0.13 | photoluminescence quantum yield (in CC#N): 0 | photoluminescence quantum yield (in CO): 0 | photoluminescence quantum yield (in ClC(Cl)Cl): 0.35
Compound: CN(C)c1ccc2nc(-c3ccc(C=C4C(=O)c5ccccc5C4=O)cc3)sc2c1

photoluminescence quantum yield (in CC#N): 0.82 | photoluminescence quantum yield (in CO): 0.016
Compound: C1=Cc2ccccc2Cc2ccccc21

photoluminescence quantum yield (in C1CCCCC1): 0.38 | photoluminescence quantum yield (in CC#N): 0.26 | photoluminescence quantum yield (in CO): 0.33 | photoluminescence quantum yield (in ClCCl): 0.41
Compound: COc1c2ccccc2c(OC)c2c1c1c(F)cccc1n2C

photoluminescence quantum yield (in CCO): 0.79 | photoluminescence quantum yield (in O): 0.6
Compound: O=C([O-])c1ccc(C2=c3cc4c5c(c3Oc3c2cc2c6c3CCCN6CCC2)CCC[N+]=5CCC4)c(C(=O)[O-])c1

photoluminescence quantum yield (in ClCCl): 0.47
Compound: CCCCCCc1cc2c3c(c1)c(=C1c4ccccc4S(=O)(=O)c4ccccc41)c1cc(CCCCCC)cc4c1N3c1c(cc(CCCCCC)cc1c4=C1c3ccccc3S(=O)(=O)c3ccccc31)c2=C1c2ccccc2S(=O)(=O)c2ccccc21

photoluminescence quantum yield (in CC#N): 0.2 | photoluminescence quantum yield (in CCO): 0.29 | photoluminescence quantum yield (in CO): 0.3 | photoluminescence quantum yield (in ClC(Cl)Cl): 0.46
Compound: C[N+]1=C(/C=C/C2=C3Oc4c(cc5c6c4CCCN6CCC5)C(c4ccccc4C(=O)O)=C3CCC2)C(C)(C)c2c1ccc1ccccc21

photoluminescence quantum yield (in ClCCl): 0.59
Compound: CCCCNc1ccc2n1[B-](F)(F)[N+]1=CC(/C=C/C(=O)OC(C)(C)C)=CC1=C2c1c(C)cc(C)cc1C

photoluminescence quantum yield (in C1CCCCC1): 0.57
Compound: C1=Cc2ccc3ccccc3c2NB1c1ccccc1

photoluminescence quantum yield (in CO): 0.75
Compound: Cc1cc(C)c(B(c2cc(-c3ccccc3)sc2-c2sc(-c3ccccc3)cc2P(=O)(c2ccccc2)c2ccccc2)c2c(C)cc(C)cc2C)c(C)c1

photoluminescence quantum yield (in ClCCl): 0.33
Compound: CCCCCCCCOc1ccc(C#Cc2ccc3c(c2)c2ccccc2n3CCCCCCCC)c(OCCCCCCCC)c1

photoluminescence quantum yield (in CS(C)=O): 0.02 | photoluminescence quantum yield (in ClCCl): 0.22
Compound: O=c1oc2ccccc2c2c1c(=O)oc1ccc3ccc(O)cc3c12

photoluminescence quantum yield (in ClCCl): 0.47
Compound: Cc1ccc2nc3cc4ccccc4cc3c(-c3ccccc3)c2c1

photoluminescence quantum yield (in C1CCCCC1): 0.56 | photoluminescence quantum yield (in C1CCOC1): 0.65 | photoluminescence quantum yield (in C1COCCO1): 0.6 | photoluminescence quantum yield (in CC#N): 0.41 | photoluminescence quantum yield (in CCCCCCC): 0.43 | photoluminescence quantum yield (in CCO): 0.49 | photoluminescence quantum yield (in CN(C)C=O): 0.6 | photoluminescence quantum yield (in CO): 0.34 | photoluminescence quantum yield (in O): 0.18 | photoluminescence quantum yield (in OCCO): 0.45
Compound: Cc1nn(-c2ccccc2)c(C2=NN(c3ccc(Br)cc3)[C@@H](c3ccccc3)[C@@H]2c2ccccc2)c1C#N

photoluminescence quantum yield (in C1COCCO1): 0.74
Compound: c1ccc(-c2nc(-c3ccc(-c4ccc(-c5nc(-c6ccccc6)c(-c6ccccc6)o5)cc4)cc3)oc2-c2ccccc2)cc1

photoluminescence quantum yield (in CC#N): 0.242 | photoluminescence quantum yield (in CO): 0.166 | photoluminescence quantum yield (in ClCCl): 0.685 | photoluminescence quantum yield (in O): 0.041
Compound: CN(C)c1ccc2c3c(c(=O)oc2c1)C=c1cc2c(cc1O3)=[N+](CCC(=O)O)CCC2

photoluminescence quantum yield (in CCO): 0.06
Compound: CCOC(=O)c1cc(C(=O)NCc2ccccc2)c2ccc(N(C)C)cc2n1

photoluminescence quantum yield (in ClCCl): 0.05
Compound: COc1ccc(C#Cc2c3cc4ccccc4cc3c(C#C[Si](C(C)C)(C(C)C)C(C)C)c3cc4ccccc4cc23)cc1

photoluminescence quantum yield (in ClCCl): 0.91 | photoluminescence quantum yield (in c1cc(-n2c3ccccc3c3ccccc32)cc(-n2c3ccccc3c3ccccc32)c1): 0.9
Compound: c1ccc(N(c2ccccc2)c2ccc(-c3ccc4c(c3)C3(c5ccccc5Oc5ccccc53)c3cc(-c5ccc(N(c6ccccc6)c6ccccc6)cc5)ccc3-4)cc2)cc1
